US10793892B2, “Method for detecting the presence of expanded spectrum β-lactamase-producing bacteria in a sample” (INSERM (INSTITUT NATIONAL DE LA SANTE ET DE LA RECHERCHE …, priority 2011, dated 2020)

Key:
Design in all cases: key: (+) and (−) referred to color change being, red to yellow or unchanged, respectively; (+) and (−) referred to color change being, red to yellow or unchanged, respectively
S. marcescens [1] = assay: ESBL NDP test using spiked blood cultures; assay type: biochemical, Serratia marcescens
Description: Strains were isolated on Mueller-Hinton agar (Biorad, Marnes-la-Coquette, France) and incubated at 37° C. for 16 h to 24 h before performing the NDP rapid ESBL test as follows. One calibrated inoculated loop (10 μl) of the tested strain was resuspended in 150 μl of 20 mM Tris-HCl lysis buffer previously distributed in Microbead tubes (Ultraclean Microbial DNA isolation kit Bead Tubes, MO BIO Laboratories, Carlsbad, USA). Mechanical lysis of bacteria was performed by strong agitation of Microbead tubes using a vortex adapter (MO BIO Laboratories) for 30 min at room temperature. This bacterial suspension was centrifuged at 10,000×g at room temperature for 5 min. Thirty μl of the supernatant was mixed in a well of a 96-well tray with 100 μl of a 1 ml solution made of 3 mg of purified cefotaxime sodium salt (Sigma-Aldrich, Saint-Quentin-Fallavier, France) in a pH 7.8 phenol red solution. […]. […] Similarly, culture extracts were analyzed in wells containing cefotaxime and tazobactam (4 mg/ml). […]
Rapid detection of ESBL producers was attempted from spiked blood cultures which positivity was assessed using the BactAlert blood culture system (bioMérieux). […] Spiked blood cultures were made of 1×10^3 CFU of each strain and incubated 24 to 48 h before a positivity of the blood culture was detected by the BactAlert system. […]

E. cloacae = assay: ESBL NDP test using spiked blood cultures; assay type: biochemical, Enterobacter cloacae
Description: (§1) Strains were isolated on Mueller-Hinton agar (Biorad, Marnes-la-Coquette, France) and incubated at 37° C. for 16 h to 24 h before performing the NDP rapid ESBL test as follows. One calibrated inoculated loop (10 μl) of the tested strain was resuspended in 150 μl of 20 mM Tris-HCl lysis buffer previously distributed in Microbead tubes (Ultraclean Microbial DNA isolation kit Bead Tubes, MO BIO Laboratories, Carlsbad, USA). Mechanical lysis of bacteria was performed by strong agitation of Microbead tubes using a vortex adapter (MO BIO Laboratories) for 30 min at room temperature. This bacterial suspension was centrifuged at 10,000×g at room temperature for 5 min. Thirty μl of the supernatant was mixed in a well of a 96-well tray with 100 μl of a 1 ml solution made of 3 mg of purified cefotaxime sodium salt (Sigma-Aldrich, Saint-Quentin-Fallavier, France) in a pH 7.8 phenol red solution. […]. The phenol red solution was made by taking 2 ml of a concentrated pH 8 phenol solution (made from a mixture of phenol red 0.5% in distilled water) to which 16.6 ml of distilled water was added. The pH value was then adjusted to a 7.8 value by adding drops of a 1 N NaOH solution. Mixture of the phenol red solution and the enzymatic suspension being tested was incubated at 37° C. for 30 min. Similarly, culture extracts were analyzed in wells containing cefotaxime and tazobactam (4 mg/ml). Other concentrations of tazobactam and other ß-lactamase inhibitors were tested giving less clear results (data not shown). […] This definition of test positivity will be applied throughout the study.
Rapid detection of ESBL producers was attempted from spiked blood cultures which positivity was assessed using the BactAlert blood culture system (bioMérieux). […] This inoculum was reached after 24-48 h incubation in this BactAlert system. Strains were inoculated into blood culture system in presence of 10 ml of sterile blood. The panel of strains used for spiking blood cultures included either non-ESBL producers (n=24) or ESBL producers (n=64) (Table 4). Spiked blood cultures were made of 1×10^3 CFU of each strain and incubated 24 to 48 h before a positivity of the blood culture was detected by the BactAlert system. Then, 15 ml of spiked blood culture were transferred in a sterile tube and centrifuged at 1,500×g for 3 min to pellet the red blood cells. The supernatant was recovered and centrifuged for 15 min at 4,000×g to pellet the bacteria. The bacterial pellet was then resuspended in 500 μl of distilled water, transferred in 1.5 ml tube and thoroughly vortexed for 15 sec to lyse the remnant red blood cells and wash the bacterial pellet. After 5 min of centrifugation at 10,000×g, the bacterial pellet was resuspended in 150 μl of 20 mM Tris-HCl lysis buffer and distributed in beadtubes. The ESBL NDP test was then applied to this pellet as described above. Experiments were systematically performed in triplicate.

E. coli = assay: ESBL NDP test using cultured strains; assay type: biochemical, Escherichia coli
Description: as §1

S. marcescens [2] = assay: ESBL NDP test using cultured strains; assay type: biochemical, Serratia marcescens
Description: as §1

[3] = S. marcescens BG 1107 4243, Wild-type
[4] = S. marcescens BN 1201 0816, Wild-type

CO/N=C(\C(=O)N[C@@H]1C(=O)N2C(C(=O)O)=C(COC(C)=O)CS[C@H]12)c1csc(N)n1 [CTX, cefotaxime]
+: ESBL NDP Test from: Blood culture (E. cloacae; E. cloacae 09.57, SHV-12) | ESBL NDP Test from: Blood culture (E. cloacae; E. cloacae 10.75, CTX-M-15) | ESBL NDP Test from: Blood culture (E. cloacae; E. cloacae 10.87, CTX-M-15) | ESBL NDP Test from: Colonies (E. coli; E. coli 09.11, TEM-52) | ESBL NDP Test from: Colonies (E. coli; E. coli 09.124, TEM-52) | ESBL NDP Test from: Colonies (E. coli; E. coli 09.129, SHV-12) | ESBL NDP Test from: Colonies (E. coli; E. coli 09.173, SHV-12) | ESBL NDP Test from: Colonies (E. coli; E. coli 09.187, SHV-2a) | ESBL NDP Test from: Colonies (E. coli; E. coli 09.193, SHV-12) | ESBL NDP Test from: Colonies (E. coli; E. coli 09.207, SHV-2a) | ESBL NDP Test from: Colonies (E. coli; E. coli 09.225, TEM-52) | ESBL NDP Test from: Colonies (E. coli; E. coli 09.40, TEM-52) | ESBL NDP Test from: Colonies (E. coli; E. coli 09.41, SHV-12) | ESBL NDP Test from: Colonies (E. coli; E. coli 09.66, TEM-52) | ESBL NDP Test from: Colonies (E. coli; E. coli 09.73, TEM-52) | ESBL NDP Test from: Colonies (E. coli; E. coli 09.79, SHV-12) | ESBL NDP Test from: Colonies (E. coli; E. coli 09.92, TEM-52) | ESBL NDP Test from: Colonies (E. coli; E. coli 10.104, CTX-M-1) | ESBL NDP Test from: Colonies (E. coli; E. coli 10.11, CTX-M-14) | ESBL NDP Test from: Colonies (E. coli; E. coli 10.121, CTX-M-2) | ESBL NDP Test from: Colonies (E. coli; E. coli 10.124, CTX-M-14) | ESBL NDP Test from: Colonies (E. coli; E. coli 10.130, CTX-M-3) | ESBL NDP Test from: Colonies (E. coli; E. coli 10.13, CTX-M-14) | ESBL NDP Test from: Colonies (E. coli; E. coli 10.132, CTX-M-2) | ESBL NDP Test from: Colonies (E. coli; E. coli 10.16, CTX-M-15) | ESBL NDP Test from: Colonies (E. coli; E. coli 10.178, CTX-M-27) | ESBL NDP Test from: Colonies (E. coli; E. coli 10.198, CTX-M-27) | ESBL NDP Test from: Colonies (E. coli; E. coli 10.204, CTX-M-27) | ESBL NDP Test from: Colonies (E. coli; E. coli 10.207, CTX-M-27) | ESBL NDP Test from: Colonies (E. coli; E. coli 10.23, CTX-M-2) | ESBL NDP Test from: Colonies (E. coli; E. coli 10.32, CTX-M-14) | ESBL NDP Test from: Colonies (E. coli; E. coli 10.33, CTX-M-15) | ESBL NDP Test from: Colonies (E. coli; E. coli 10.36, CTX-M-1) | ESBL NDP Test from: Colonies (E. coli; E. coli 10.38, CTX-M-1) | ESBL NDP Test from: Colonies (E. coli; E. coli 10.43, CTX-M-15) | ESBL NDP Test from: Colonies (E. coli; E. coli 10.46, CTX-M-14) | ESBL NDP Test from: Colonies (E. coli; E. coli 10.49, CTX-M-15) | ESBL NDP Test from: Colonies (E. coli; E. coli 10.53, CTX-M-9) | ESBL NDP Test from: Colonies (E. coli; E. coli 10.64, CTX-M-32) | ESBL NDP Test from: Colonies (E. coli; E. coli 10.73, CTX-M-27) | ESBL NDP Test from: Colonies (E. coli; E. coli 10.74, CTX-M-15) | ESBL NDP Test from: Colonies (E. coli; E. coli 10.95, CTX-M-1) | ESBL NDP Test from: Colonies (E. coli; E. coli A7R5, SHV-3) | Test (color change) (E. coli; E. coli ACC-1, n=1, second line) | ESBL NDP Test from: Colonies (E. coli; E. coli C5O52, CTX-M-28) | Test (color change) (E. coli; E. coli CMY-2, n=1) | Test (color change) (E. coli; E. coli CTX-M-1, n=16) | Test (color change) (E. coli; E. coli CTX-M-2, n=3) | Test (color change) (E. coli; E. coli CTX-M-3, n=1) | Test (color change) (E. coli; E. coli CTX-M-9, n=1) | Test (color change) (E. coli; E. coli CTX-M-14, n=15) | Test (color change) (E. coli; E. coli CTX-M-15, n=46) | Test (color change) (E. coli; E. coli CTX-M-27, n=6) | Test (color change) (E. coli; E. coli CTX-M-28, n=1) | Test (color change) (E. coli; E. coli CTX-M-32, n=1) | Test (color change) (E. coli; E. coli CTX-M-97, n=1) | ESBL NDP Test from: Colonies (E. coli; E. coli Ec13 SYD, CMY-2) | ESBL NDP Test from: Colonies (E. coli; E. coli LOU, ACC-1) | Test (color change) (E. coli; E. coli SHV-2a, n=3) | Test (color change) (E. coli; E. coli SHV-3, n=1) | Test (color change) (E. coli; E. coli SHV-12, n=6) | Test (color change) (E. coli; E. coli TEM-52, n=8) | Test (color change) (E. coli; E. coli VEB-1, n=1)
−: ESBL NDP Test from: Blood culture (S. marcescens [1]; [3]) | ESBL NDP Test from: Blood culture (S. marcescens [1]; [4]) | ESBL NDP Test from: Blood culture (E. cloacae; E. cloacae BG 1106 7725, Wild-type) | ESBL NDP Test from: Blood culture (E. cloacae; E. cloacae BG 1106 7746, Wild-type) | ESBL NDP Test from: Blood culture (E. cloacae; E. cloacae BG 1107 4118, Wild-type) | ESBL NDP Test from: Colonies (E. coli; E. coli 09.123, TEM-133) | ESBL NDP Test from: Colonies (E. coli; E. coli (Belgium), ACC-1) | Test (color change) (E. coli; E. coli ACC-1, n=1, first line) | ESBL NDP Test from: Colonies (E. coli; E. coli BG 1106 5698, Penicillinase) | ESBL NDP Test from: Colonies (E. coli; E. coli BG 1106 6252, Wild-type) | ESBL NDP Test from: Colonies (E. coli; E. coli BG 1106 6367, Wild-type) | ESBL NDP Test from: Colonies (E. coli; E. coli BG 1106 7202, Penicillinase) | ESBL NDP Test from: Colonies (E. coli; E. coli BG 1107 8873, Wild-type) | ESBL NDP Test from: Colonies (E. coli; E. coli BG 1108 6157, Penicillinase) | Test (color change) (E. coli; E. coli DHA-1, n=1) | ESBL NDP Test from: Colonies (E. coli; E. coli GOU, DHA-1) | Test (color change) (E. coli; E. coli SHV-12, n=1) | Test (color change) (E. coli; E. coli TEM-1 penicillinase, n=5) | Test (color change) (E. coli; E. coli TEM-12, n=1) | Test (color change) (E. coli; E. coli TEM-29, n=2) | Test (color change) (E. coli; E. coli TEM-133, n=1) | Test (color change) (E. coli; E. coli Wild-type, no resistance, n=5) | ESBL NDP Test from: Colonies (S. marcescens [2]; [3]) | ESBL NDP Test from: Colonies (S. marcescens [2]; [4]) | Test (color change) (S. marcescens [2]; S. marcescens Wild-type, chromosome-encoded cephalosporinase, n=2)
